Source: publication PMC10724200, “A peptide derived from interleukin-10 exhibits potential anticancer activity and can facilitate cell targeting of gold nanoparticles loaded with anticancer therapeutics” (Communications Chemistry, 2023)
Ends that are not written are not given here.

Columns and labels:
[1] = target: T1, recombinant receptor human IL-10Ra protein (Homo sapiens, UniProt Q13651); experiment: Biolayer interferometry kinetic assay, binding to IL-10Ra; conditions: read-out: ka (association constant)
T1 sequence (Q13651 22-578): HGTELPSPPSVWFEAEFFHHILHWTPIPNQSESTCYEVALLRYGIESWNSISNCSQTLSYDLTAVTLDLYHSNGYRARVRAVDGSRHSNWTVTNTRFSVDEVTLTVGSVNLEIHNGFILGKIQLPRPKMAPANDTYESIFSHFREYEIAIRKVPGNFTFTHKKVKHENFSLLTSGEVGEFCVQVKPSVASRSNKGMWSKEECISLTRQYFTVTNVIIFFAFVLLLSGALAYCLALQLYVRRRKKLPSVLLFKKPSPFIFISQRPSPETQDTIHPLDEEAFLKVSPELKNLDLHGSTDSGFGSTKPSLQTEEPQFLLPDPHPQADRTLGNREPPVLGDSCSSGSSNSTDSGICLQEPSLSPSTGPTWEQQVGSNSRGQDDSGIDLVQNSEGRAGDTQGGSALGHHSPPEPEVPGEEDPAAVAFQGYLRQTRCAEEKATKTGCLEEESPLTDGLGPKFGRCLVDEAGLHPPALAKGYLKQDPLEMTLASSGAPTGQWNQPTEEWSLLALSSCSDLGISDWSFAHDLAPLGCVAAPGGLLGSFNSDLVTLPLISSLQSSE
Experimental: (§1) Biolayer interferometry (BLI) was applied to analyze peptide–receptor protein interactions. BLI was performed with a ForteBio Octet RED96e System (Sartorius AG, Göttingen, Germany) by using high-precision streptavidin and biosensors. The biosensors were hydrated in a plate for 15 min and then loaded with 10 μg/mL recombinant receptor human IL-10Ra protein and incubated for 150 s. […] After the association step, the biosensor was shifted to the dissociation buffer, phosphate-buffered saline (PBS) with 0.05% Tween20, for dissociation. Dissociation was recorded until equilibrium was reached (120 s).
To measure the binding ability of the designed and negative control peptides (NM25, NK20, NK20a, and control scramble peptide CG20) to the receptor IL-10Ra in vitro, BLI experiments were performed. […] When binding with IL-10Ra, the association constant (ka) of NK20 and NK20a was 1.02 × 10^4 (1/Ms) and 8.14 × 10^3 (1/Ms), respectively. The ka values of the refined peptides were approximately 12-fold higher than that of NM25. […] The equilibrium dissociation constant (KD) of NK20a interactions with IL-1R1was approximately 2000 times greater than that with IL-10Ra, and the calculated dissociation constant of NK20a interactions with IL-1R1 was to be 5000 times greater than that with IL-10Ra interactions (Table 2). […] As a result, NK20a was used for further investigations in this study.
Fig. 3 BLI kinetic assays of the designed peptides binding to the receptor IL-10Ra. Wavelength shift curves show the association and dissociation of the designed peptides (a) NM25, (b) NK20, (c) NK20a, (d) CG20 binding to the IL-10 receptor, and (e) NK20a binding to a control receptor IL-1R1 at various concentrations. Dissociation was recorded at 120 s after the binding started (black dotted line).

IL-1R1 = target: T2, IL-1R1 (Homo sapiens, UniProt P14778); experiment: Biolayer interferometry kinetic assay, binding to control receptor IL-1R1; conditions: read-out: ka (association constant)
T2 sequence (P14778 18-569): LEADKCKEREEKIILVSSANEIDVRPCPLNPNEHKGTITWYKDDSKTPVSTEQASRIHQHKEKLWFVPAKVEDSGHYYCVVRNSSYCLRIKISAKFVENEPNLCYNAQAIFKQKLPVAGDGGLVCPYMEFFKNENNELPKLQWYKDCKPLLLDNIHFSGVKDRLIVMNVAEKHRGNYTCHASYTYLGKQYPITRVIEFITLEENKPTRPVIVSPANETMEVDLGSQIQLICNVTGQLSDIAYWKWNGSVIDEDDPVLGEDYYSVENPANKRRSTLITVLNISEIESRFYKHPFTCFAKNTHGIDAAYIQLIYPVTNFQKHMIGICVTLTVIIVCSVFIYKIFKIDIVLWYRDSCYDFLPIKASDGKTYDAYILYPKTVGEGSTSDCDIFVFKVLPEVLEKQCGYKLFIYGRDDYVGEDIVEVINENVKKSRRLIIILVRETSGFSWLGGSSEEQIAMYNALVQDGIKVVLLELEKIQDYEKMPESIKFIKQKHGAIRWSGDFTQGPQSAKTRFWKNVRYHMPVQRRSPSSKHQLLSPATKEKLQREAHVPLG
Experimental: as §1
To measure the binding ability of the designed and negative control peptides (NM25, NK20, NK20a, and control scramble peptide CG20) to the receptor IL-10Ra in vitro, BLI experiments were performed. […] When binding with IL-10Ra, the association constant (ka) of NK20 and NK20a was 1.02 × 10^4 (1/Ms) and 8.14 × 10^3 (1/Ms), respectively. […] The equilibrium dissociation constant (KD) of NK20a interactions with IL-1R1was approximately 2000 times greater than that with IL-10Ra, and the calculated dissociation constant of NK20a interactions with IL-1R1 was to be 5000 times greater than that with IL-10Ra interactions (Table 2). […]
Fig. 3 BLI kinetic assays of the designed peptides binding to the receptor IL-10Ra. […] Dissociation was recorded at 120 s after the binding started (black dotted line).

NMLRNLRNAFSRVKTFFQMK [NK20a] was tested, and the kon [1] was 8140 M⁻¹ s⁻¹ and the kon (IL-1R1) was 18300 M⁻¹ s⁻¹.
